Series [1] in a line: Cytotoxicity against mouse B16F0 cells assessed as hexosaminidase level after 72 hrs by colorimetric analysis. In kind it is functional, cell-based. Particulars: B16F0, 72 h.
The test system of series [2] is HeLa. Nature of the series: Cytotoxicity against human HeLa cells assessed as hexosaminidase level after 72 hrs by colorimetric analysis. It is filed as functional, cell-based.
Series [3] is described as follows: Selectivity ratio of IC50 for mouse NMuMG cells to IC50 for human HeLa cells. It is filed as ADME, cell-based. Particulars: NMuMG cells and HeLa cells, read-out: Ratio IC50.
The nature of series [4]: Cytotoxicity against mouse NMuMG cells assessed as hexosaminidase level after 72 hrs by colorimetric analysis. It is filed as cell-based.
The nature of series [5]: Selectivity ratio of IC50 for mouse NMuMG cells to IC50 for mouse B16F0 cells. Particulars: NMuMG cells and B16F0 cells, read-out: Ratio IC50. It is filed as ADME, cell-based.
The test system of series [6] is HeLa. Nature of the series: Cytotoxicity against human HeLa cells assessed as growth inhibition at 20 uM after 72 hrs by colorimetric analysis relative to control. In kind it is functional. Particulars: read-out: GI.

By IC50 is commonly meant the concentration that gives 50% inhibition. For `COC(=O)[C@H](Cc1ccccc1)NC(=O)c1cn(C[C@@H]2N3C(=O)C(Br)(Br)[C@H]3SC2(C)C)nn1`, the IC50 in series [1] was 10 µM; with HeLa [2], 14 µM; in series [4] it was 125 µM. Moreover, the selectivity ratio in series [3] turned out to be 9; in series [5], 12.5.

On to `COC(=O)[C@H](Cc1ccc(O)cc1)NC(=O)[C@H](CC(C)C)NC(=O)c1cn(C[C@@H]2N3C(=O)C(Br)(Br)[C@H]3SC2(C)C)nn1`, for which the inhibition of growth at 20 µM with HeLa [6] was below 50%. For the same molecule, the IC50 in series [1] was 22 µM; in series [4], above 160 µM. In series [5], the selectivity ratio is above 7.

As to `COC(=O)[C@H](Cc1ccccc1)NC(=O)[C@H](CC(C)C)NC(=O)c1cn(C[C@@H]2N3C(=O)C(Br)(Br)[C@H]3SC2(C)C)nn1`, the IC50 in series [1] stood at 3 µM; with HeLa [2] it was 3 µM; in series [4], 102 µM. The selectivity ratio in series [3] and in series [5] was 34 each time.

On to `CC[C@H](C)[C@H](NC(=O)c1cn(C[C@@H]2N3C(=O)C(Br)(Br)[C@H]3SC2(C)C)nn1)C(=O)N[C@@H](Cc1ccccc1)C(=O)OC`, for which the IC50 in series [1] is 9 µM; in the series with HeLa [2], 15 µM; in series [4] it was 83 µM. For the same molecule, the selectivity ratio is 5.5 in series [3] and 9 in series [5].

Consider `COC(=O)[C@H](Cc1ccccc1)NC(=O)[C@@H](NC(=O)c1cn(C[C@@H]2N3C(=O)C(Br)(Br)[C@H]3SC2(C)C)nn1)C(C)C`, for which the IC50 amounted to 9 µM in series [1], 16 µM with HeLa [2] and 170 µM in series [4]. Besides, the selectivity ratio in series [3] was found to be 10.6; in series [5] it was 19.

Turning to `COC(=O)[C@H](Cc1ccccc1)NC(=O)[C@@H]1CCCN1C(=O)c1cn(C[C@@H]2N3C(=O)C(Br)(Br)[C@H]3SC2(C)C)nn1`, the values for the IC50 (in series [1]; with HeLa [2]; in series [4]) were 11 µM, 17 µM and 55 µM, respectively. Besides, the selectivity ratio in series [3] turned out to be 3; in series [5], 5.

Take `COC(=O)[C@H](CC(C)C)NC(=O)[C@H](CC(C)C)NC(=O)c1cn(C[C@@H]2N3C(=O)C(Br)(Br)[C@H]3SC2(C)C)nn1`: the IC50 came to 4 µM in series [1], 9 µM in the series on HeLa [2] and 88 µM in series [4]. In addition, the selectivity ratio in series [3] turned out to be 10; in series [5] it was 22.

As to `CC[C@H](C)[C@H](NC(=O)c1cn(C[C@@H]2N3C(=O)C(Br)(Br)[C@H]3SC2(C)C)nn1)C(=O)N[C@@H](Cc1ccc(O)cc1)C(=O)OC`, the inhibition of growth at 20 µM in the series with HeLa [6] is below 50%. Further, the IC50 in series [1] is 20 µM; in series [4], 95 µM. For the same molecule, the selectivity ratio in series [5] was 5.

With `COC(=O)[C@H](Cc1ccccc1)NC(=O)[C@H](CCSC)NC(=O)c1cn(C[C@@H]2N3C(=O)C(Br)(Br)[C@H]3SC2(C)C)nn1`, the IC50 in series [1] came out at 9 µM; in the series with HeLa [2], 10 µM; in series [4] it was 275 µM. Also, the selectivity ratio in series [3] is 27.5; in series [5], 30.5.

As to `COC(=O)[C@H](Cc1ccccc1)NC(=O)[C@H](CC(C)C)NC(=O)c1cn(C[C@@H]2N3C(=O)C[C@H]3SC2(C)C)nn1`, the IC50 in series [1] was found to be 10 µM; in the series with HeLa [2], 13 µM; in series [4], 355 µM. Further, the selectivity ratio in series [3] is 27; in series [5] it was 35.5.

With `COC(=O)[C@H](Cc1ccccc1)NC(=O)[C@H](CC(C)C)NC(=O)c1cn(C[C@@H]2N3C(=O)C(Br)(Br)[C@H]3S(=O)(=O)C2(C)C)nn1`, the results for the IC50 (in series [1]; in the series on HeLa [2]; in series [4]) were 2 µM, 2 µM and 7 µM, respectively. The selectivity ratio in series [3] and in series [5] was 3.5 throughout.

The values are drawn from ChEMBL document CHEMBL3132828, “In vitro anticancer activity and SAR studies of triazolyl aminoacyl(peptidyl) penicillins” (Medchemcomm, 2014).
